We go through 10 compounds from patent US9512139B2, “Conformationally constrained, fully synthetic macrocyclic compounds” (POLYPHOR AG, priority 2009, dated 2016).

The half-life is the time needed for the level to fall by half in the phase considered.

The nature of series [1]: Metabolic stability assay, CD-1 mouse microsomes. The format is in vitro ADME. To be noted: microsomes; for Metabolic Stability 60 min mouse [% remain.]: 1 h. The procedure: (§1) 4. Plasma and Metabolic Stability Assays
(§2) The assays were conducted according to literature precedents (F. P. Guengerich, Analysis and Characterization of Enzymes; in: Principles and Methods of Toxicology; A. W. Hayes (Ed.) Raven Press: New York, 1989, 777-813; R. Singh et al., In vitro metabolism of a potent HIV-protease inhibitor (141W94) using rat, monkey and human liver S9, Rapid Commun. Mass Spectrom. 1996, 10, 1019-1026).
(§3) Metabolic Stability Assay
(§4) Microsomes from a human 50 donor mixed gender pool and 1:1 mixtures of microsomes from CD-1 mouse single-gender pools are purchased from Celsis (Belgium). The enzymatic reaction is performed in a buffer containing an NADPH regeneration system and microsomes with the following end concentrations: 100 mM potassium phosphate buffer (all from Sigma), 1 mg/mL glucose-6-phosphate, 1 mg/mL β-nicotinamide adenine dinucleotide phosphate (NADP), 0.65 mg/mL magnesium chloride, 0.8 units/mL of glucose-6-phosphate dehydrogenase (prediluted with 5 mM citrate buffer), 10 μM compound and 1 mg/ml microsomal protein. Compounds are incubated at 37° C. in duplicates and samples are taken after 0, 20 and 60 minutes. After acetonitrile precipitation (2 volumes) and HPLC/MS/MS analysis metabolic turnover is expressed in % of the initial 0 minutes value and half life T½ (min) is calculated. Verapamil for human and propranolol for mouse are used as reference and are assayed with every experimental set.

Series [2] in a line: in vitro. Format: in vitro ADME, human. The following applies: human, plasma; for Plasma Stability 240 min hum [% remain.]: 4 h.
Series [3] is described as follows: Metabolic stability assay, human microsomes. Format: in vitro ADME. The following applies: human, microsomes; for Metabolic Stability 60 min hum [% remain.]: 1 h. As for the experimental part: as §1, §2, §3, §4
A short description of series [4]: in vitro. Format: in vitro ADME, mouse. The following applies: plasma; for Plasma Stability 240 min mouse [% remain.]: 4 h.
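Wherever Plasma Stability 240 min mouse [% remain.] is given: sodium citrate stabilized mouse plasma, parent compound quantified by HPLC/MS/MS relative to its peak area at time zero, run in triplicate.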
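Wherever Plasma Stability T½ [min] mouse is given: sodium citrate stabilized mouse plasma, parent compound quantified by HPLC/MS/MS relative to its peak area at time zero, run in triplicate.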

`CN1CC(=O)N2C[C@H](NC(=O)CCC(=O)O)C[C@H]2COc2ccc(cc2)C(=O)N(C)[C@H](C(=O)NCc2ccncc2)CCC1=O` [Ex. 267, 4-{[(4S,6R,15S)-11,16-dimethyl-9,12,17-trioxo-15-{[(4-pyridinylmethyl)amino]carbonyl}-2-oxa-8,11,16-triazatricyclo[16.2.2.0^4,8]docosa-1(20),18,21-trien-6-yl]amino}-4-oxobutanoic acid]: in series [1] (both, CD-1, mouse, 10 µM), the Metabolic Stability T½ [min] mouse was above 60 min and the “Metabolic Stability 60 min mouse [% remain.]” value came out at 100 % remain. In addition, in “in vitro [2]” (10 µM), the Plasma Stability T½ [min] hum is above 240 min and the “Plasma Stability 240 min hum [% remain.]” value worked out at 75 % remain. In addition, in series [3] (both, 10 µM), the Metabolic Stability T½ [min] hum is above 60 min and the “Metabolic Stability 60 min hum [% remain.]” value came to 99 % remain. Moreover, in the series “in vitro [4]” (both, CD-1, mouse, 10 µM), the Plasma Stability T½ [min] mouse is above 240 min and the “Plasma Stability 240 min mouse [% remain.]” value is on record as 79 % remain.
Consider `CN(C)CCNC(=O)[C@H]1CCC(=O)N(C)CC(=O)N2CCN(C(=O)Cc3ccc4ccccc4c3)C[C@@H]2COc2ccc(F)cc2C(=O)N1C` [Ex. 138, (12R,20aR)-N-[2-(dimethylamino)ethyl]-16-fluoro-8,13-dimethyl-2-[2-(2-naphthyl)acetyl]-6,9,14-trioxo-1,2,3,4,7,8,9,10,11,12,13,14,20,20a-tetradecahydro-6H-pyrazino[2,1-c][1,4,7,12]benzoxatriazacyclopentadecine-12-carboxamide], for which, in series [1] (both, CD-1, mouse, 10 µM), the Metabolic Stability T½ [min] mouse was above 60 min and the “Metabolic Stability 60 min mouse [% remain.]” value came out at 99 % remain. For the same compound, in “in vitro [2]” (10 µM), the Plasma Stability T½ [min] hum was above 240 min and the “Plasma Stability 240 min hum [% remain.]” value was determined as 89 % remain. For the same compound, in series [3] (both, 10 µM), the Metabolic Stability T½ [min] hum is above 60 min and the “Metabolic Stability 60 min hum [% remain.]” value is 62 % remain. Also, in the series “in vitro [4]” (both, CD-1, mouse, 10 µM), the Plasma Stability T½ [min] mouse was above 240 min and the “Plasma Stability 240 min mouse [% remain.]” value is on record as 78 % remain.
With `CC(=O)N[C@H]1CN(C)C(=O)c2cccc(c2)OC[C@@H]2C[C@H](NC(=O)CN(C)C)CN2C(=O)CN(C)C1=O` [Ex. 208, N-[(4S,6S,13S)-13-(acetylamino)-11,15-dimethyl-9,12,16-trioxo-2-oxa-8,11,15-triazatricyclo[15.3.1.0^4,8]henicosa-1(21),17,19-trien-6-yl]-2-(dimethylamino)acetamide], in series [1] (both, CD-1, mouse, 10 µM), the Metabolic Stability T½ [min] mouse was above 60 min and the “Metabolic Stability 60 min mouse [% remain.]” value was 100 % remain. Moreover, in “in vitro [2]” (10 µM), the Plasma Stability T½ [min] hum is above 240 min and the “Plasma Stability 240 min hum [% remain.]” value was determined as 98 % remain. Further, in series [3] (both, 10 µM), the Metabolic Stability T½ [min] hum was above 60 min and the “Metabolic Stability 60 min hum [% remain.]” value was 84 % remain. Further, in the series “in vitro [4]” (both, CD-1, mouse, 10 µM), the Plasma Stability T½ [min] mouse was above 240 min and the “Plasma Stability 240 min mouse [% remain.]” value was 90 % remain.
In the case of `CCN(CC)[C@@H]1C[C@H]2COc3ccc(cc3)C(=O)N(C)[C@H](C(=O)NCc3ccc4ccccc4c3)CCC(=O)N(C)CC(=O)N2C1` [Ex. 262, (4S,6R,15S)-6-(diethylamino)-11,16-dimethyl-N-(2-naphthylmethyl)-9,12,17-trioxo-2-oxa-8,11,16-triazatricyclo[16.2.2.0^4,8]docosa-1(20),18,21-triene-15-carboxamide], the half-life at 10 µM in series [1] (both sexes, CD-1, mouse) stood at 0.383 h. Also, in series [1] (both, CD-1, mouse, 10 µM), the “Metabolic Stability 60 min mouse [% remain.]” value is given as 4 % remain. Further, in the series “in vitro [2]” (10 µM), the Plasma Stability T½ [min] hum is above 240 min and the “Plasma Stability 240 min hum [% remain.]” value is reported as 100 % remain. Further, the half-life at 10 µM in series [3] (both sexes) stood at 0.35 h. For the same compound, the “Metabolic Stability 60 min hum [% remain.]” value in series [3] (both, 10 µM) worked out at 0 % remain. Besides, in the series “in vitro [4]” (both, CD-1, mouse, 10 µM), the Plasma Stability T½ [min] mouse is above 240 min and the “Plasma Stability 240 min mouse [% remain.]” value is 93 % remain.
Take `CN1CC(=O)N2C[C@@H](NC(=O)CN3CCCC3)C[C@H]2COc2ccc(F)cc2C(=O)N(C)[C@@H](C(=O)N2CCCC2)CCC1=O` [Ex. 98, N-[(2S,11R,19aS)-15-fluoro-7,12-dimethyl-5,8,13-trioxo-11-(1-pyrrolidinylcarbonyl)-2,3,6,7,8,9, 10,11,12,13,19,19a-dodecahydro-1H,5H-pyrrolo[2,1-c][1,4,7,12]benzoxatriazacyclopentadecin-2-yl]-2-(1-pyrrolidinyl)acetamide]: in series [1] (both, CD-1, mouse, 10 µM), the Metabolic Stability T½ [min] mouse is above 60 min and the “Metabolic Stability 60 min mouse [% remain.]” value was found to be 100 % remain. For the same compound, in the series “in vitro [2]” (10 µM), the Plasma Stability T½ [min] hum is above 240 min and the “Plasma Stability 240 min hum [% remain.]” value was 100 % remain. Further, in series [3] (both, 10 µM), the Metabolic Stability T½ [min] hum was above 60 min and the “Metabolic Stability 60 min hum [% remain.]” value turned out to be 97 % remain. In the series “in vitro [4]” (both, CD-1, mouse, 10 µM), the Plasma Stability T½ [min] mouse was above 240 min and the “Plasma Stability 240 min mouse [% remain.]” value is given as 78 % remain.
As to `CN1CC(=O)N2C[C@@H](NC(=O)CCC(=O)O)C[C@H]2COc2ccc(F)cc2C(=O)N(C)[C@@H](C(=O)NCc2ccc3ccccc3c2)CCC1=O` [Ex. 95], in series [1] (mouse), the Metabolic Stability T½ [min] mouse was above 60 min and the “Metabolic Stability 60 min mouse [% remain.]” value turned out to be 94 % remain. Further, in “in vitro [2]”, the Plasma Stability T½ [min] hum is above 240 min and the “Plasma Stability 240 min hum [% remain.]” value was 100 % remain. Moreover, in series [3], the Metabolic Stability T½ [min] hum was above 60 min and the “Metabolic Stability 60 min hum [% remain.]” value was found to be 76 % remain. Further, in the series “in vitro [4]” (mouse), the Plasma Stability T½ [min] mouse is above 240 min and the “Plasma Stability 240 min mouse [% remain.]” value was found to be 93 % remain.
On to `CN(C)CC(=O)N[C@@H]1C[C@H]2COc3cccc(c3)C(=O)N(C)C[C@H](NC(=O)Cc3ccc4ccccc4c3)C(=O)N(C)CC(=O)N2C1` [Ex. 230, 2-(dimethylamino)-N-[(4S,6R,13S)-11,15-dimethyl-13-{[2-(2-naphthyl)acetyl]amino}-9,12,16-trioxo-2-oxa-8,11,15-triazatricyclo[15.3.1.0^4,8]henicosa-1(21),17,19-trien-6-yl]acetamide], for which, in series [1] (both, CD-1, mouse, 10 µM), the Metabolic Stability T½ [min] mouse is above 60 min and the “Metabolic Stability 60 min mouse [% remain.]” value is 90 % remain. In “in vitro [2]” (10 µM), the Plasma Stability T½ [min] hum was above 240 min and the “Plasma Stability 240 min hum [% remain.]” value is reported as 100 % remain. In series [3] (both, 10 µM), the Metabolic Stability T½ [min] hum was above 60 min and the “Metabolic Stability 60 min hum [% remain.]” value worked out at 61 % remain. Moreover, in the series “in vitro [4]” (both, CD-1, mouse, 10 µM), the Plasma Stability T½ [min] mouse was above 240 min and the “Plasma Stability 240 min mouse [% remain.]” value was 95 % remain.
In the case of `CN1CCC[C@H](N2CCN(S(C)(=O)=O)CC2)C(=O)N2C[C@@H](O)C[C@H]2COc2cccc(c2)C1=O` [Ex. 583, (4S,6S,10S)-6-hydroxy-14-methyl-10-[4-(methylsulfonyl)piperazino]-2-oxa-8,14-diazatricyclo[14.3.1.0^4,8]icosa-1(20),16,18-triene-9,15-dione], in series [1] (both, CD-1, mouse, 10 µM), the Metabolic Stability T½ [min] mouse is above 60 min and the “Metabolic Stability 60 min mouse [% remain.]” value is recorded as 95 % remain. For the same compound, in “in vitro [2]” (10 µM), the Plasma Stability T½ [min] hum is above 240 min and the “Plasma Stability 240 min hum [% remain.]” value came to 91 % remain. In addition, in series [3] (both, 10 µM), the Metabolic Stability T½ [min] hum is above 60 min and the “Metabolic Stability 60 min hum [% remain.]” value worked out at 100 % remain. In addition, in “in vitro [4]” (both, CD-1, mouse, 10 µM), the Plasma Stability T½ [min] mouse was above 240 min and the “Plasma Stability 240 min mouse [% remain.]” value is 83 % remain.
`CC(=O)N[C@H]1C[C@H]2COc3ccc(F)cc3C(=O)N(C)[C@H](C(=O)N3CCCC3)CCC(=O)N(C)CC(=O)N2C1` [Ex. 37, N-[(2S,11S,19aS)-15-fluoro-7,12-dimethyl-5,8,13-trioxo-11-(1-pyrrolidinylcarbonyl)-2,3,6,7,8,9,10,11,12,13,19,19a-dodecahydro-1H,5H-pyrrolo[2,1-c] [1,4,7,12]benzoxatriazacyclo-pentadecin-2-yl]acetamide]: in series [1] (mouse), the Metabolic Stability T½ [min] mouse is above 60 min and the “Metabolic Stability 60 min mouse [% remain.]” value turned out to be 100 % remain. Moreover, in the series “in vitro [2]”, the Plasma Stability T½ [min] hum was above 240 min and the “Plasma Stability 240 min hum [% remain.]” value came out at 77 % remain. For the same compound, in series [3], the Metabolic Stability T½ [min] hum was above 60 min and the “Metabolic Stability 60 min hum [% remain.]” value was determined as 100 % remain. For the same compound, in the series “in vitro [4]” (mouse), the Plasma Stability T½ [min] mouse is above 240 min and the “Plasma Stability 240 min mouse [% remain.]” value was determined as 100 % remain.
As to `CN1CCC[C@H](NC(=O)CC(C)(C)C)C(=O)N2C[C@@H](N)C[C@H]2COc2cccc(c2)C1=O` [Ex. 533, N-[(4S,6S,10S)-6-amino-14-methyl-9,15-dioxo-2-oxa-8,14-diazatricyclo[14.3.1.0^4,8]icosa-1(20),16,18-trien-10-yl]-3,3-dimethylbutanamide], in series [1] (both, CD-1, mouse, 10 µM), the Metabolic Stability T½ [min] mouse was above 60 min and the “Metabolic Stability 60 min mouse [% remain.]” value is given as 93 % remain. Also, in “in vitro [2]” (10 µM), the Plasma Stability T½ [min] hum was above 240 min and the “Plasma Stability 240 min hum [% remain.]” value was found to be 95 % remain. In series [3] (both, 10 µM), the Metabolic Stability T½ [min] hum was above 60 min and the “Metabolic Stability 60 min hum [% remain.]” value was found to be 59 % remain. In the series “in vitro [4]” (both, CD-1, mouse, 10 µM), the Plasma Stability T½ [min] mouse is above 240 min and the “Plasma Stability 240 min mouse [% remain.]” value is reported as 100 % remain.
